The source made the active and inactive calls. No cut-off for these calls is given here.
What was measured:
[1] = biological target: T1, Indoleamine 2,3-dioxygenase 2 (Homo sapiens, UniProt Q6ZQW0); assay: Inhibition of IDO2 (unknown origin) assessed as reduction in kynurenine formation using L-tryptophan as substrate by methylene blue reagent based assay
T1 sequence (Q6ZQW0 whole entry): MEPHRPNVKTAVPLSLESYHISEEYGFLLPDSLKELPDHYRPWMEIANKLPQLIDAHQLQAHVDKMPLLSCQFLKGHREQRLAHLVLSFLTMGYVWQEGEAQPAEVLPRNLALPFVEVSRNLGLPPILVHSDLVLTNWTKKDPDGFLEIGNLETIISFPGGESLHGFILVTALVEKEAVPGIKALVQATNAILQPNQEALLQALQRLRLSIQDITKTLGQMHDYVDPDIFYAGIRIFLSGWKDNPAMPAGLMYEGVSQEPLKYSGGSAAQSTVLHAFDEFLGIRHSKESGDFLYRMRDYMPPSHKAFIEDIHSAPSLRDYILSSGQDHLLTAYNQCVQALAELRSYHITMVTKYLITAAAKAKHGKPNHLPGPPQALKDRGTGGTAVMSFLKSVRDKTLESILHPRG

[2] = Half life in Sprague-Dawley rat at 5 mg/kg, iv; assay type: ADME, organism-based; conditions: in vivo
[3] = Half life in Sprague-Dawley rat at 50 mg/kg, po; assay type: ADME, organism-based; conditions: in vivo
[4] = Clearance in mouse liver microsomes; assay type: ADME, Microsome; conditions: read-out: CLH
[5] = Apparent permeability across apical to basolateral side in human Caco-2 cells; assay type: ADME, cell-based
[6] = Efflux ratio of apparent permeability across basolateral to apical over apical to basolateral side in human Caco-2 cells; assay type: ADME, cell-based
Mus musculus = assay: In vivo inhibition of TDO in BALB/c mouse xenografted with human HCT-116 cells assessed as suppression of TDO mRNA expression in tumor by quantitative RT-PCR analysis; assay type: functional, organism-based
[7] = biological target: Aryl hydrocarbon receptor (Homo sapiens, UniProt P35869); assay: Activation of AhR (unknown origin) assessed as effect on CYP1A1 mRNA expression measured after 24 hrs by quantitative RT-PCR analysis; assay type: ADME
[8] = biological target: Tyrosine-protein kinase ABL1 (Homo sapiens) (UniProt P00519); assay: Inhibition of ABL1 (unknown origin) at 1 uM
Tyrosine-protein kinase ABL1 (Homo sapiens), sequence (P00519 whole entry): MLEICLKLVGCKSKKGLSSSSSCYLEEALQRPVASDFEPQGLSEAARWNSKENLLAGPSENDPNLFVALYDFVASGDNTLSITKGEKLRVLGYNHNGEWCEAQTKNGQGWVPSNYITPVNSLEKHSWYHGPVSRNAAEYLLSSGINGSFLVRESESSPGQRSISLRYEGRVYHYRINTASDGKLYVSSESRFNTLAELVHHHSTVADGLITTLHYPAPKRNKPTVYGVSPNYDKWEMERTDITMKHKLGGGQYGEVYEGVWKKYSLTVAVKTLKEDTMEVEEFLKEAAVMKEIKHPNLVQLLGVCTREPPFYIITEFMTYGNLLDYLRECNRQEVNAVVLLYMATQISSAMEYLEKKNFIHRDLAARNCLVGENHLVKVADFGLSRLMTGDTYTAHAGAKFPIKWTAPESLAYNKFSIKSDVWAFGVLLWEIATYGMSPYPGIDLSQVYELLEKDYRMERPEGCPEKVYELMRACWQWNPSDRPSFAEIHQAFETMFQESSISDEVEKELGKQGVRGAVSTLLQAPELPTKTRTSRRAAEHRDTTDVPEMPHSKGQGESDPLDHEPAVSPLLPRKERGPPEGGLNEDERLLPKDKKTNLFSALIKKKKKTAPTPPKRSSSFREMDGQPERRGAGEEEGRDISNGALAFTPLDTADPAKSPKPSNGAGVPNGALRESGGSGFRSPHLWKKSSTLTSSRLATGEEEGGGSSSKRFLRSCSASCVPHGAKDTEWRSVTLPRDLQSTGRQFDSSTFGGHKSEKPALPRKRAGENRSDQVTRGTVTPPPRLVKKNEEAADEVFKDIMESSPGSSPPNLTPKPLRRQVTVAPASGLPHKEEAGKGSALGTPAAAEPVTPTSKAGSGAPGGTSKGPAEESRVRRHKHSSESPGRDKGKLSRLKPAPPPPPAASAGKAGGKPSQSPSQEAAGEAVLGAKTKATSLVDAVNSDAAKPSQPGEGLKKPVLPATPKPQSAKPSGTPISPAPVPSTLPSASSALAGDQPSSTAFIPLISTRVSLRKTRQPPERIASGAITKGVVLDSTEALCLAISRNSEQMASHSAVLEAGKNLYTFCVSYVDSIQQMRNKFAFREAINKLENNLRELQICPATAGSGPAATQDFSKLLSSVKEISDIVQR

[9] = biological target: Tyrosine-protein kinase Blk (Homo sapiens) (UniProt P51451); assay: Inhibition of BLK (unknown origin) at 1 uM
[10] = biological target: Hepatocyte growth factor receptor (Homo sapiens) (UniProt P08581); assay: Inhibition of c-MET (unknown origin) at 1 uM
[11] = biological target: Calcium/calmodulin-dependent protein kinase type 1G (Homo sapiens) (UniProt Q96NX5); assay: Inhibition of CAMK1G (unknown origin) at 1 uM
[12] = biological target: Calcium/calmodulin-dependent protein kinase kinase 1 (Homo sapiens) (UniProt Q8N5S9); assay: Inhibition of CAMKK1 (unknown origin) at 1 uM
[13] = biological target: Cyclin-dependent kinase 14/Cyclin-Y (Homo sapiens) (UniProt O94921+Q8ND76); assay: Inhibition of CDK14/cyclin-Y (unknown origin) at 1 uM; assay type: protein-complex assay
[14] = biological target: CDK4/Cyclin D3 (Homo sapiens) (UniProt P11802+P30281); assay: Inhibition of CDK4/cyclin-D3 (unknown origin) at 1 uM; assay type: protein-complex assay
[15] = biological target: CDK6/cyclin D1 (Homo sapiens) (UniProt P24385+Q00534); assay: Inhibition of CDK6/cyclin-D1 (unknown origin) at 1 uM; assay type: protein-complex assay
[16] = biological target: Dual specificity protein kinase CLK2 (Homo sapiens) (UniProt P49760); assay: Inhibition of CLK2 (unknown origin) at 1 uM
[17] = biological target: Dual specificity protein kinase CLK4 (Homo sapiens) (UniProt Q9HAZ1); assay: Inhibition of CLK4 (unknown origin) at 1 uM
Dual specificity protein kinase CLK4 (Homo sapiens), sequence (Q9HAZ1 whole entry, looked up, the tested form may be a part): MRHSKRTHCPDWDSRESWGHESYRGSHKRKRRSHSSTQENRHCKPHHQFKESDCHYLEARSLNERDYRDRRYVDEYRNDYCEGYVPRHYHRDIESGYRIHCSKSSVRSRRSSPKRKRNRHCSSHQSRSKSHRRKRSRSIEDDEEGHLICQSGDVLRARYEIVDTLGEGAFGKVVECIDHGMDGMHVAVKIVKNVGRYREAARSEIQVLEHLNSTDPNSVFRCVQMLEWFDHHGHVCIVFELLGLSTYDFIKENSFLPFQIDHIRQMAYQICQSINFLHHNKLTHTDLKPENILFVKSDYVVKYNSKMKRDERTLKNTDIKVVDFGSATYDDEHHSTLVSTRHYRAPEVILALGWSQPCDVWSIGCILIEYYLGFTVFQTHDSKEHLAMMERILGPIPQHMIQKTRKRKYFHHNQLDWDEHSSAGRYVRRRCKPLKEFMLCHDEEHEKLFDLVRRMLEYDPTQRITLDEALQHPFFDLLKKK

[18] = biological target: Discoidin domain-containing receptor 2 (Homo sapiens) (UniProt Q16832); assay: Inhibition of DDR2 (unknown origin) at 1 uM
Discoidin domain-containing receptor 2 (Homo sapiens), sequence (Q16832 whole entry, the tested form may be a part): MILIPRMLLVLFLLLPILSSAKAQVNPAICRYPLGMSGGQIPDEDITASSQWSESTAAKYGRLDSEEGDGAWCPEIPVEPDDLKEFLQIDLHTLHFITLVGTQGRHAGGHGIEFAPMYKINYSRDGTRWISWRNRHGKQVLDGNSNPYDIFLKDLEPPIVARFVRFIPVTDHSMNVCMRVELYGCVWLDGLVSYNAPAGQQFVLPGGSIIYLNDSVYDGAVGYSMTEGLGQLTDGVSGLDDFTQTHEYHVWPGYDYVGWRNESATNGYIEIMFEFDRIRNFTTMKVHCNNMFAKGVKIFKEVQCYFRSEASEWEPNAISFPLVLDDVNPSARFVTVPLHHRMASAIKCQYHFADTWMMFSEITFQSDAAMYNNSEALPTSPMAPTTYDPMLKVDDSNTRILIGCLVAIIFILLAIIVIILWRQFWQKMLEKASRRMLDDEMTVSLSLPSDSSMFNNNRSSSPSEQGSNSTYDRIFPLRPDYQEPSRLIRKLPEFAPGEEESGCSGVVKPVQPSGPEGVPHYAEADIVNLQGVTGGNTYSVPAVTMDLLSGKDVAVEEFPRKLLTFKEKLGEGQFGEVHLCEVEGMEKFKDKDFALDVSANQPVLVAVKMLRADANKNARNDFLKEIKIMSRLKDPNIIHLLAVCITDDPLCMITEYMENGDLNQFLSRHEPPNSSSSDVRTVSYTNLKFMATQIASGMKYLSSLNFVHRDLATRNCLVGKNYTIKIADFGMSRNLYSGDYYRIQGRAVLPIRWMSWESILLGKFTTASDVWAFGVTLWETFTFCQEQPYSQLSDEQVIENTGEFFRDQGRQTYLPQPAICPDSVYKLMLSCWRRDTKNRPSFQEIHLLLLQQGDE

[19] = biological target: Ephrin type-A receptor 7 (Homo sapiens) (UniProt Q15375); assay: Inhibition of EPHA7 (unknown origin) at 1 uM
[20] = biological target: Macrophage colony-stimulating factor 1 receptor (Homo sapiens) (UniProt P07333); assay: Inhibition of FMS (unknown origin) at 1 uM
[21] = biological target: Inhibitor of nuclear factor kappa-B kinase subunit beta (Homo sapiens) (UniProt O14920); assay: Inhibition of IKKbeta (unknown origin) at 1 uM
Inhibitor of nuclear factor kappa-B kinase subunit beta (Homo sapiens), sequence (O14920 whole entry): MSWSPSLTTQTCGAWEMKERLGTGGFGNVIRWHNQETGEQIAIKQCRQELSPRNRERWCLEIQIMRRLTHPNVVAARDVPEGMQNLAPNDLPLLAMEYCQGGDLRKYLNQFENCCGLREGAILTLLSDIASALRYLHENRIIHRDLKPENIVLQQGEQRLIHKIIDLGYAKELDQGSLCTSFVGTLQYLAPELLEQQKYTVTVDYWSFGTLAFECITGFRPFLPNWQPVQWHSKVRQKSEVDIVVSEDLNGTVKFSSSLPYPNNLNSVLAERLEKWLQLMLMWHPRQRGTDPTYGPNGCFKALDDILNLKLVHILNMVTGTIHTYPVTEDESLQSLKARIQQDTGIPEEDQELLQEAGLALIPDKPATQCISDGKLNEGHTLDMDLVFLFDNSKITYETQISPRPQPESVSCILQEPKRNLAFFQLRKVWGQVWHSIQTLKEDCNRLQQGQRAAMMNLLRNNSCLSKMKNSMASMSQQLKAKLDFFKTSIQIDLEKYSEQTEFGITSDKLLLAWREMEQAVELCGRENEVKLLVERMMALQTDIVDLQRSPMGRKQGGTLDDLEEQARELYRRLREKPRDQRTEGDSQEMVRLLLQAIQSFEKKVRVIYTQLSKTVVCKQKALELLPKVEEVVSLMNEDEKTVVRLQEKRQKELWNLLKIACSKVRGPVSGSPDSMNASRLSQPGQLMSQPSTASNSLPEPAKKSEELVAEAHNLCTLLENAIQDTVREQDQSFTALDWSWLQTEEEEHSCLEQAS

[22] = biological target: MAP kinase-activated protein kinase 3 (Homo sapiens) (UniProt Q16644); assay: Inhibition of MAPKAPK3 (unknown origin) at 1 uM
[23] = biological target: Mitogen-activated protein kinase kinase kinase 1 (Homo sapiens) (UniProt Q13233); assay: Inhibition of MEKK1 (unknown origin) at 1 uM
[24] = biological target: Mitogen-activated protein kinase kinase kinase 11 (Homo sapiens) (UniProt Q16584); assay: Inhibition of MLK3 (unknown origin) at 1 uM
[25] = biological target: MAP kinase-interacting serine/threonine-protein kinase 2 (Homo sapiens) (UniProt Q9HBH9); assay: Inhibition of MNK2 (unknown origin) at 1 uM
[26] = biological target: Serine/threonine-protein kinase NIM1 (Homo sapiens) (UniProt Q8IY84); assay: Inhibition of NIM1 (unknown origin) at 1 uM
Serine/threonine-protein kinase NIM1 (Homo sapiens), sequence (Q8IY84 whole entry): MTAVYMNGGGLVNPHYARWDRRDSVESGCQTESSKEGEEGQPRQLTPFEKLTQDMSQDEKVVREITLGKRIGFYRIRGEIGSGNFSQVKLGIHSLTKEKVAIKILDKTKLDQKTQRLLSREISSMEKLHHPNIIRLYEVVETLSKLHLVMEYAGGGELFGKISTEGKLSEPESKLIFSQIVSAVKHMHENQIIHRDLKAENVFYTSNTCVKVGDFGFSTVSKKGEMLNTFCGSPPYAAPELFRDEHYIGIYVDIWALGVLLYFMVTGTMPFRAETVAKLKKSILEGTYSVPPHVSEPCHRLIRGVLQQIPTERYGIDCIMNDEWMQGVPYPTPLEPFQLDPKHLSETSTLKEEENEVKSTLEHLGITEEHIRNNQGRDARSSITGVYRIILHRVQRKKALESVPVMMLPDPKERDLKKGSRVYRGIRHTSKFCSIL

[27] = biological target: Serine/threonine-protein kinase NLK (Homo sapiens) (UniProt Q9UBE8); assay: Inhibition of NLK (unknown origin) at 1 uM
[28] = biological target: Lymphokine-activated killer T-cell-originated protein kinase (Homo sapiens) (UniProt Q96KB5); assay: Inhibition of PBK (unknown origin) at 1 uM
[29] = biological target: Platelet-derived growth factor receptor alpha (Homo sapiens) (UniProt P16234); assay: Inhibition of PDGFRalpha (unknown origin) at 1 uM
[30] = biological target: Serine/threonine-protein kinase pim-2 (Homo sapiens) (UniProt Q9P1W9); assay: Inhibition of PIM2 (unknown origin) at 1 uM
[31] = biological target: Protein kinase C alpha type (Homo sapiens) (UniProt P17252); assay: Inhibition of PKCalpha (unknown origin)at 1 uM
[32] = biological target: Protein kinase C epsilon type (Homo sapiens) (UniProt Q02156); assay: Inhibition of PKCepsilon (unknown origin)at 1 uM
[33] = biological target: Protein kinase C theta type (Homo sapiens) (UniProt Q04759); assay: Inhibition of PKCtheta (unknown origin) at 1 uM
[34] = biological target: Ribosomal protein S6 kinase alpha-1 (Homo sapiens) (UniProt Q15418); assay: Inhibition of RSK1 (unknown origin) at 1 uM
[35] = biological target: Ribosomal protein S6 kinase alpha-6 (Homo sapiens) (UniProt Q9UK32); assay: Inhibition of RSK4 (unknown origin) at 1 uM
Ribosomal protein S6 kinase alpha-6 (Homo sapiens), sequence (Q9UK32 whole entry): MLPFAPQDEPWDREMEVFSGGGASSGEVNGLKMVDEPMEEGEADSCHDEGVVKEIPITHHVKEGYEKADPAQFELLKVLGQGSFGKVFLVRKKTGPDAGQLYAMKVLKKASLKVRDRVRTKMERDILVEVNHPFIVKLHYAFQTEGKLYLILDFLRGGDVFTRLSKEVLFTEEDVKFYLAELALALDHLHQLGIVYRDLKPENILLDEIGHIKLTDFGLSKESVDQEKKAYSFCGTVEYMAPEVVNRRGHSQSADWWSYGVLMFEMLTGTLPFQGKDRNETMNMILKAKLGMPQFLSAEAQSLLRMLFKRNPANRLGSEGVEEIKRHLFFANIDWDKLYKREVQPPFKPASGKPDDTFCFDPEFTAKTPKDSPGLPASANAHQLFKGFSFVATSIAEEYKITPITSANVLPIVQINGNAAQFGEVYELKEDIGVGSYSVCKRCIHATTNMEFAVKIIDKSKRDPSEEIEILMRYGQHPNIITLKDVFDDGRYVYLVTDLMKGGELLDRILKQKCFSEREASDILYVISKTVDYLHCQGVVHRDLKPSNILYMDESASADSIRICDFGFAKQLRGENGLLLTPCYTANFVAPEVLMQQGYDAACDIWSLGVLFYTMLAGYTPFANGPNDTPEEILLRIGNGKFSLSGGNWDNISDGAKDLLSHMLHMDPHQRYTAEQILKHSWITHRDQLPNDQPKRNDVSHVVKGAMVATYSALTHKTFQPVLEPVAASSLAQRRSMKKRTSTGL

[36] = biological target: SRSF protein kinase 1 (Homo sapiens) (UniProt Q96SB4); assay: Inhibition of SRPK1 (unknown origin) at 1 uM
SRSF protein kinase 1 (Homo sapiens), sequence (Q96SB4 whole entry): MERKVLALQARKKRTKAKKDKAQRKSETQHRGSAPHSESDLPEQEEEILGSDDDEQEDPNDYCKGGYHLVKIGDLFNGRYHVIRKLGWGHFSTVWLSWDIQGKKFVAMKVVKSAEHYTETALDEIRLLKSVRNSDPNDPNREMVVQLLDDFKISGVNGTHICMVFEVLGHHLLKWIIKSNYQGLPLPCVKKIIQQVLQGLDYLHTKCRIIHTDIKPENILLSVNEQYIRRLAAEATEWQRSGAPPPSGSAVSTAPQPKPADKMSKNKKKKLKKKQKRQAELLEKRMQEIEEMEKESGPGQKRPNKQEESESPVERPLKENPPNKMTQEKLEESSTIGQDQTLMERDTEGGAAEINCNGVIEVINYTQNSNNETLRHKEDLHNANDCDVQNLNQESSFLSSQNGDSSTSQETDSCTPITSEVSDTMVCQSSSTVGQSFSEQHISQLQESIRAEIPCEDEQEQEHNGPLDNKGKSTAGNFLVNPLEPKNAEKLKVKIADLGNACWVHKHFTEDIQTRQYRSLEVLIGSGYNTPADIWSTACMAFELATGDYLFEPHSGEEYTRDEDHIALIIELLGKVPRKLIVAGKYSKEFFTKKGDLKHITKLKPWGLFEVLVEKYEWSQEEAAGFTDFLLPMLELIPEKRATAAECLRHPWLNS

[37] = biological target: BDNF/NT-3 growth factors receptor (Homo sapiens) (UniProt Q16620); assay: Inhibition of TRKB (unknown origin) at 1 uM
[38] = biological target: Serine/threonine-protein kinase ULK1 (Homo sapiens) (UniProt O75385); assay: Inhibition of ULK1 (unknown origin) at 1 uM

## OCCOCc1cn(CCNc2nonc2/C(=N/O)Nc2ccc(F)c(Br)c2)nn1
[1]
  IC50: 144 nM
[2]
  half-life: 0.61 h
[3]
  half-life: 1.9 h
[4]
  microsomal CLint: 32.2 µL/min/mg
[5]
  Papp A→B: 7.2 ×10⁻⁶ cm/s
[6]
  efflux ratio: 6.4
Mus musculus
  inhibition: inactive
[7]
  Activity: Not Active
[8]
  inhibition: inactive
[9]
  inhibition: inactive
[10]
  inhibition: inactive
[11]
  inhibition: inactive
[12]
  inhibition: inactive
[13]
  inhibition: inactive
[14]
  inhibition: inactive
[15]
  inhibition: inactive
[16]
  inhibition: inactive
[17]
  inhibition: inactive
[18]
  inhibition: inactive
[19]
  inhibition: inactive
[20]
  inhibition: inactive
[21]
  inhibition: inactive
[22]
  inhibition: inactive
[23]
  inhibition: inactive
[24]
  inhibition: inactive
[25]
  inhibition: inactive
[26]
  inhibition: inactive
[27]
  inhibition: inactive
[28]
  inhibition: inactive
[29]
  inhibition: inactive
[30]
  inhibition: inactive
[31]
  inhibition: inactive
[32]
  inhibition: inactive
[33]
  inhibition: inactive
[34]
  inhibition: inactive
[35]
  inhibition: inactive
[36]
  inhibition: inactive
[37]
  inhibition: inactive
[38]
  inhibition: inactive
